Columns and labels:
[1] = system: Blood; assay: Inhibition of calcium ionophore-stimulated LTB4 production in human whole blood; format: functional, tissue-based
[2] = Inhibition of calcium ionophore-stimulated LTB4 production in human PMN cells; format: functional, cell-based
[3] = target: T1, Arachidonate 5-lipoxygenase-activating protein (Homo sapiens, UniProt P20292); assay: Displacement of [125I]L-691831 from FLAP
T1 sequence (P20292 whole entry): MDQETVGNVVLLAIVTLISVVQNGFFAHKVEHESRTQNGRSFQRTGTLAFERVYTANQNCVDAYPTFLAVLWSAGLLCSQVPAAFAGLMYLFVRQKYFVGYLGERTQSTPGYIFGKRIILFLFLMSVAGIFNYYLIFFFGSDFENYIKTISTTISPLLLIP

[4] = Oral bioavailability in rat at 20 mg/kg; format: ADME, organism-based; conditions: in vivo
[5] = Cmax in rat at 20 mg/kg, po after 6 hrs; format: ADME, organism-based; parameters: dose 20 mg/kg, route oral; conditions: in vivo
[6] = system: Canis familiaris; assay: Inhibition of ragweed-induced urinary LTE4 production in dog at 2.5 ug/kg/min, iv; format: functional; conditions: Canis lupus familiaris, Urine
[7] = target: T2, Polyunsaturated fatty acid 5-lipoxygenase (Homo sapiens, UniProt P09917); assay: Inhibition of 5LOX
T2 sequence (P09917 whole entry): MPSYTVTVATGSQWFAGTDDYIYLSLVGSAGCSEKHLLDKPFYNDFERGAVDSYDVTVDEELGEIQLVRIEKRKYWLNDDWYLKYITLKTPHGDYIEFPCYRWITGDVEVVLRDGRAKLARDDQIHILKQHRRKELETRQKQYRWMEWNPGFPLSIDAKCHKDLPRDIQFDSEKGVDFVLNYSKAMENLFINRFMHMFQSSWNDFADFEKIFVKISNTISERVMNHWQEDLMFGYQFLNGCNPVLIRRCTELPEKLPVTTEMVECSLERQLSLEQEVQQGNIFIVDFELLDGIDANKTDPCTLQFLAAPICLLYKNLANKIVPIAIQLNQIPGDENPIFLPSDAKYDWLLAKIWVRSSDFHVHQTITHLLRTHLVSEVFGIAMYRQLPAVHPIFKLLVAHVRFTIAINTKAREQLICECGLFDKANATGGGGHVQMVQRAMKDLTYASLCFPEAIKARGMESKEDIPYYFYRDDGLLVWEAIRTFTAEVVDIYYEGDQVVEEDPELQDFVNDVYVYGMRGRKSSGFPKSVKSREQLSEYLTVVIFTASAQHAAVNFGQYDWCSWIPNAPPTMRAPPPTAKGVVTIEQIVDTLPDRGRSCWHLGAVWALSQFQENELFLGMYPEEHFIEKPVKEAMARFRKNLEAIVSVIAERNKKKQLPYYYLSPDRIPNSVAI

| Structure (SMILES) | IC50 ([1]; Homo sapiens, Blood) [nM] | IC50 ([2]; Homo sapiens, PMN) [nM] | IC50 [3] [nM] | other results |
| --- | --- | --- | --- | --- |
| CN(C)CCOc1ccc(OCc2ccc3ccccc3n2)cc1C1(c2ccccc2)CC2CCC1C2 (centres undefined) | 335 | 8.7 | 6.5 | – |
| c1ccc(C2(c3cc(OCc4ccc5occc5n4)ccc3OCc3ccccn3)CC3CCC2C3)cc1 (centres undefined) | 80 | 2.2 | 4.9 | – |
| O=C(Nc1cccnc1)Oc1ccc(OCc2nc3ccccc3s2)cc1C1(c2ccccc2)CC2CCC1C2 (centres undefined) | – | – | 2.5 | IC50 [1]: 86 nM; IC50 ([2]; pmn): 1.8 nM |
| COC(=O)COc1cc(OCc2ccc3ccccc3n2)ccc1C1(c2ccccc2)CC2CCC1C2 (centres undefined) | – | 47 | 776 | – |
| O=C(Nc1cccnc1)Oc1ccc(OCc2nc3ccccc3s2)cc1C1(c2ccccc2)CC2CCC1C2 (racemic) | – | – | 2.8 | bioavailability [4]: 19%; IC50 [1]: 33 nM; IC50 ([2]; pmn): 2 nM; Cmax [5]: 1100 nM; inhibition in vivo at 2.5 µg/kg/min [6]: 89% |
| COC(=O)COc1ccc(C2(c3ccc(OCc4ccc5ccccc5n4)cc3)CC3CCC2C3)cc1 (centres undefined) | – | 169 | 182 | – |
| c1ccc(C2(c3cc(OCc4ccc5ccccc5n4)ccc3OCc3ccccn3)CC3CCC2C3)cc1 (centres undefined) | 225 | 7 | 4.1 | – |
| O=C(O)COc1ccc(C2(c3ccc(OCc4ccc5ccccc5n4)cc3)CC3CCC2C3)cc1 (centres undefined) | – | 44 | 98 | IC50 [7]: > 6300 nM |
| c1ccc(C2(c3cc(OCc4ccccn4)ccc3OCc3ccccn3)CC3CCC2C3)cc1 (centres undefined) | 275 | 3.9 | 18.3 | – |
| c1ccc(C2(c3cc(OCc4cccnc4)ccc3OCc3ccccn3)CC3CCC2C3)cc1 (centres undefined) | – | 24 | 134 | – |
| O=C(Nc1cccnc1)Oc1ccc(OCc2ccc3ccccc3n2)cc1C1(c2ccccc2)CCCC1 | 52 | < 1.3 | 2.4 | – |
| Oc1cc(OCc2ccc3ccccc3n2)ccc1C1(c2ccccc2)CC2CCC1C2 (centres undefined) | – | > 2370 | 980 | – |
| O=C(Nc1cccnc1)Oc1ccc(OCc2ccccn2)c(C2(c3ccccc3)CC3CCC2C3)c1 (centres undefined) | > 3000 | – | 181 | – |
| O=C(O)COc1ccc(OCc2ccc3ccccc3n2)cc1C1(c2ccccc2)CC2CCC1C2 (centres undefined) | > 3000 | 16 | 14 | – |
| O=C(O)c1ccc(OCc2ccc3ccccc3n2)cc1C1(c2ccccc2)CC2CCC1C2 (centres undefined) | – | 9.5 | 12.4 | – |
| Oc1ccc(C2(c3ccc(OCc4ccc5ccccc5n4)cc3)CC3CCC2C3)cc1 (centres undefined) | – | 186 | 145 | – |
| Oc1ccc(OCc2ccc3ccccc3n2)cc1C1(c2ccccc2)CC2CCC1C2 (centres undefined) | 580 | 19 | 13.2 | IC50 [7]: 5000 nM |
| COC(=O)c1ccc(OCc2ccc3ccccc3n2)cc1C1(c2ccccc2)CC2CCC1C2 (centres undefined) | 140 | 2.6 | 5.6 | – |
| c1ccc2nc(COc3ccc(C4(c5ccc(OCc6ccc7ccccc7n6)cc5)CC5CCC4C5)cc3)ccc2c1 (centres undefined) | – | > 1800 | 127 | – |
| OCCOc1ccc(C2(c3ccc(OCCO)cc3)CC3CCC2C3)cc1 (centres undefined) | – | 60 | 387 | IC50 [7]: > 8000 nM |

| Structure (SMILES) | IC50 ([1]; Homo sapiens, Blood) [nM] | IC50 ([2]; Homo sapiens, PMN) [nM] | IC50 [3] [nM] | other results |
| --- | --- | --- | --- | --- |
| CC(C)(C)Sc1c(CC(C)(C)C(=O)O)n(Cc2ccc(Cl)cc2)c2ccc(OCc3ccc4ccccc4n3)cc12 [QUIFLAPON] | 510 | 3.1 | – | – |
| CCCCOc1ccc(OCc2ccc3ccccc3n2)cc1C1(c2ccccc2)CC2CCC1C2 (centres undefined) | > 3000 | 80 | 6 | – |
| c1ccc(COc2ccc(OCc3ccc4ccccc4n3)cc2C2(c3ccccc3)CC3CCC2C3)cc1 (centres undefined) | > 3000 | 217 | 8.6 | – |
| COc1ccc(OCc2ccc3ccccc3n2)cc1C1(c2ccccc2)CC2CCC1C2 (centres undefined) | 1100 | 9 | 8.6 | – |
| c1ccc(C2(c3cc(OCc4ccc5ccccc5n4)ccc3OCc3ccc4ccccc4n3)CCCCC2)cc1 | 3000 | 6.1 | 4.2 | – |
| c1ccc(C2(c3cc(OCc4nc5ccccc5s4)ccc3OCc3ccccn3)CC3CCC2C3)cc1 (centres undefined) | 220 | 7 | 7.6 | – |
| O=C(O)COc1cc(OCc2ccc3ccccc3n2)ccc1C1(c2ccccc2)CC2CCC1C2 (centres undefined) | – | 152 | 3590 | – |
| O=C(O)CCCOc1ccc(OCc2ccc3ccccc3n2)cc1C1(c2ccccc2)CC2CCC1C2 (centres undefined) | 300 | 8 | 3.5 | – |
| COC(=O)COc1ccc(OCc2ccc3ccccc3n2)cc1C1(c2ccccc2)CCCC1 | 890 | 1.7 | 9.3 | – |
| O=C(Nc1cccnc1)Oc1ccc(OCc2nc3ccccc3s2)cc1C1(c2ccccc2)CC2CCC1C2 (single isomer, unassigned; (-)) | – | 3 | 2.4 | IC50 [1]: 37 nM |
| CS(=O)(=O)CCOc1ccc(OCc2ccc3ccccc3n2)cc1C1(c2ccccc2)CC2CCC1C2 (centres undefined) | 114 | 4.2 | 5.5 | – |
| COC(=O)COc1ccc(OCc2ccc3ccccc3n2)c(C2(c3ccccc3)CC3CCC2C3)c1 (centres undefined) | – | 5.9 | 94 | – |
| c1ccc(C2(c3cc(OCc4ccc5ccccc5n4)ccc3OCc3ccc4ccccc4n3)CCCC2)cc1 | 1080 | 10.2 | 4.5 | – |
| CCOC(=O)CCCOc1ccc(OCc2ccc3ccccc3n2)cc1C1(c2ccccc2)CC2CCC1C2 (centres undefined) | 150 | 42 | 3.7 | – |
| O=C(O)COc1ccc(OCc2ccc3ccccc3n2)c(C2(c3ccccc3)CC3CCC2C3)c1 (centres undefined) | – | 282 | 3150 | – |
| COC(=O)COc1ccc(OCc2ccc3ccccc3n2)cc1C1(c2ccccc2)CC2CCC1C2 (centres undefined) | 290 | 5 | 5 | IC50 [7]: > 6000 nM |
| Oc1ccc(OCc2ccc3ccccc3n2)cc1C1(c2ccccc2)CCCC1 | 1920 | 5 | 22 | – |
| COC(=O)COc1ccc(OCc2ccc3ccccc3n2)cc1C1(c2ccccc2)CCCCC1 | 200 | 1.8 | 3.7 | – |
| Oc1ccc(O)c(C2(c3ccccc3)CC3CCC2C3)c1 (centres undefined) | – | 418 | 2070 | – |
